Nine substances from patent US20240270821A1, “GIP/GLP1/GCG TRI-RECEPTOR AGONISTS AND USES THEREOF” (priority 2023, published 2024) can be followed below.

A word on the EC50: it is the concentration giving half of the maximal effect.

Starred links: 1 amine or outer side, 2 acyl side, 3 side chain; linkers in the order of their positions; H or OH if unused. Non-standard residues stand in square brackets, D forms with d. Groups on a side chain read outwards from the residue. *: point of attachment. C18 diacid = O=C(O)CCCCCCCCCCCCCCCCC(=O)*; αMePhe(2-F) = C[C@](N)(Cc1ccccc1F)C(=O)O; γGlu = O=C(O)[C@H](CCC(=O)[*:2])N[*:1]; αMeY = C[C@](N)(Cc1ccc(O)cc1)C(=O)O; 4Pal = N[C@@H](Cc1ccncc1)C(=O)O; αMeL = CC(C)C[C@](C)(N)C(=O)O; αMeS = C[C@](N)(CO)C(=O)O; Orn = NCCC[C@H](N)C(=O)O; Aib = CC(C)(N)C(=O)O

What all share (assay type): cell-based
For experiment [1], the target named is T1, hGIPR (Homo sapiens, UniProt P48546).
T1 sequence (P48546 22-466): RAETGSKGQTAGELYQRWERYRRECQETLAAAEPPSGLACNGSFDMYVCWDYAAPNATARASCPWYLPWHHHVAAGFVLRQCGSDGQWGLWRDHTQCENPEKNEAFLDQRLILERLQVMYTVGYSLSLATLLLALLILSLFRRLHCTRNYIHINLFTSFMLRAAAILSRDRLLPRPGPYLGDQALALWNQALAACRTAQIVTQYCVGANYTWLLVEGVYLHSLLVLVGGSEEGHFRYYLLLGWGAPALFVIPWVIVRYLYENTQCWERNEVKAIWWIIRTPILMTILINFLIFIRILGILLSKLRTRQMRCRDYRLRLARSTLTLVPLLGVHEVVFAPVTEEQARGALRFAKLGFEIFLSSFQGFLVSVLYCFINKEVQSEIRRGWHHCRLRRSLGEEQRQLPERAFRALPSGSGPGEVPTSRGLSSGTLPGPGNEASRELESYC
Description: Functional cAMP activity in the presence of 1% HSA. The settings on record: read-out: cAMP Rel EC50, hGIPR.

Experiment [2] has as its target T1, hGIPR. Nature of the experiment: Functional cAMP activation in the presence of 0.1% casein (no HSA). The settings on record: read-out: Relative cAMP EC50, hGIPR.
In the next experiment the target is hGcgR (Homo sapiens, UniProt P47871). Described as above. The settings on record: read-out: Relative cAMP EC50, hGcgR.
hGcgR, sequence (P47871 26-477): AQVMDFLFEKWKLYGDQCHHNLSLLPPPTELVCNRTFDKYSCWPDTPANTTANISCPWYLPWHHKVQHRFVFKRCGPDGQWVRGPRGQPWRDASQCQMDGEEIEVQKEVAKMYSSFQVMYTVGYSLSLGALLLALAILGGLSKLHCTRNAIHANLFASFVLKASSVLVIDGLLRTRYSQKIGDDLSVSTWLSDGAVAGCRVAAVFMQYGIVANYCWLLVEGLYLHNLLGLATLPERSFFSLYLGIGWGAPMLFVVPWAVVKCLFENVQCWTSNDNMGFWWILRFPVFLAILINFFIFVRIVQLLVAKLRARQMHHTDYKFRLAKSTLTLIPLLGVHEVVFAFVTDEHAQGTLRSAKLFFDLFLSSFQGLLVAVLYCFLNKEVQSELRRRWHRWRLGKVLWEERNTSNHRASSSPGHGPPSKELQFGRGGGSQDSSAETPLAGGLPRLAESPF
The target of another experiment is human GcgR (Homo sapiens, UniProt P47871). Description: Functional cAMP activity in the presence of 1% HSA. The settings on record: read-out: cAMP Rel EC50, hGcgR.
human GcgR, sequence (P47871 26-477): as above
Experiment [3] deals with T2, hGLP-1R (Homo sapiens, UniProt P43220). Description: Functional cAMP activity in the presence of 1% HSA. The settings on record: read-out: cAMP Rel EC50, hGLP-1R.
T2 sequence (P43220 24-463): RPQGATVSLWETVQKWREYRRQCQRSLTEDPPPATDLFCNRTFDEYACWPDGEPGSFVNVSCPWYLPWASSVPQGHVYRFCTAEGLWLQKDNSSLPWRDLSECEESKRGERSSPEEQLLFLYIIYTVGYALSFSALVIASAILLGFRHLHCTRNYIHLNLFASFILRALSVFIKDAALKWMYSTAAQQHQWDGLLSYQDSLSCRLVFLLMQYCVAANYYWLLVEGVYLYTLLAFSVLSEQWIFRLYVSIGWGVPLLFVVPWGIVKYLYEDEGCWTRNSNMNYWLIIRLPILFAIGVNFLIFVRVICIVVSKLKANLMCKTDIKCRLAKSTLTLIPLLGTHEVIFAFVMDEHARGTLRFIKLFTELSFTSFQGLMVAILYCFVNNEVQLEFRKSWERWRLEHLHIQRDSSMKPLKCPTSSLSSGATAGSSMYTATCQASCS
In experiment [4] the target is T2, hGLP-1R. Nature of the experiment: Functional cAMP activation in the presence of 0.1% casein (no HSA). The conditions noted are these: read-out: Relative cAMP EC50, hGLP-1R.
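Throughout, for Relative cAMP EC50, hGIPR: intracellular cAMP rise after 30 min at 37 °C read by HTRF against a standard curve, scaled between buffer alone (0%) and top control ligand concentration (100%), four-parameter fit.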
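Throughout, for Relative cAMP EC50, hGLP-1R: intracellular cAMP rise after 30 min at 37 °C read by HTRF, normalized between buffer only (0%) and maximal control ligand (100%), four-parameter variable-slope fit.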
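Throughout, for Relative cAMP EC50, hGcgR: intracellular cAMP rise after 30 min at 37 °C, read by HTRF against a cAMP standard curve, scaled from buffer only (0%) to maximal control ligand response (100%).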

Take “H-Y[Aib]QGT[αMePhe(2-F)]TSD[4Pal][αMeS]I[αMeL]LD[Orn]K([γGlu-γGlu-C18 diacid])AQ[Aib][Orn]FI[dE][αMeY]LAEGGPSSGEPPPSGGEE-NH2 [Example 590]”: the EC50 at hGIPR [1] is 4.25 nM; at hGIPR [2] it was 0.105 nM; at hGcgR, 4.34 nM; at human GcgR, 309 nM; on hGLP-1R [3], 58.7 nM; at hGLP-1R [4], 0.89 nM.

Regarding “H-Y[Aib]QGT[αMePhe(2-F)]TSD[4Pal][αMeS]I[αMeL]LD[Orn]K([γGlu-γGlu-C18 diacid])AQ[Aib][Orn]FI[dE][αMeY]LAEGGPSSGEPPPSGSEE-NH2 [Example 589]”, the EC50 on hGIPR [1] was determined as 3.83 nM; on hGIPR [2], 0.0672 nM; on hGcgR, 4.11 nM; on human GcgR, 289 nM; at hGLP-1R [3], 44.4 nM; at hGLP-1R [4], 0.713 nM.

Take “H-Y[Aib]QGT[αMePhe(2-F)]TSD[4Pal][αMeS]I[αMeL]LD[Orn]K([γGlu-γGlu-C18 diacid])AQ[Aib][Orn]FI[dE][αMeY]LAEGGPSSGEPPPSGTE-NH2 [Example 544]”: the EC50 at hGIPR [1] came out at 2.4 nM; at hGIPR [2] it was 0.041 nM; on hGcgR, 2.71 nM; on human GcgR, 171 nM; at hGLP-1R [3] it was 43 nM; on hGLP-1R [4], 0.623 nM.

Take “H-Y[Aib]QGT[αMePhe(2-F)]TSD[4Pal][αMeS]I[αMeL]LD[Orn]K([γGlu-γGlu-C18 diacid])AQ[Aib][Orn]FI[dE][αMeY]LAEGGPSSGEPPPSGTGE-NH2 [Example 545]”: the EC50 on hGIPR [1] amounted to 2.74 nM; on hGIPR [2] it was 0.0432 nM; at hGcgR, 2.71 nM; at human GcgR, 180 nM; at hGLP-1R [3] it was 40.2 nM; at hGLP-1R [4] it was 0.602 nM.

Take “H-Y[Aib]QGT[αMePhe(2-F)]TSD[4Pal][αMeS]I[αMeL]LD[Orn]K([γGlu-γGlu-C18 diacid])AQ[Aib][Orn]FI[dE][αMeY]LIEGGPSSGEPPPSEG-NH2 [Example 480]”: the EC50 stood at 0.722 nM on hGIPR [1]; 0.0107 nM on hGIPR [2]; 1.47 nM on hGcgR; 65.5 nM at human GcgR; 8.39 nM at hGLP-1R [3]; 0.215 nM on hGLP-1R [4].

Regarding “H-Y[Aib]QGT[αMePhe(2-F)]TSD[4Pal][αMeS]I[αMeL]LD[Orn]K([γGlu-γGlu-C18 diacid])AQ[Aib][Orn]FI[dE][αMeY]LQEGGPSSGEPPPEGEEE-NH2 [Example 588]”, the EC50 at hGIPR [1] came to 2.86 nM; on hGIPR [2], 0.0777 nM; on hGcgR, 4.72 nM; on human GcgR it was 259 nM; on hGLP-1R [3] it was 34.1 nM; on hGLP-1R [4], 0.613 nM.

Regarding “H-Y[Aib]QGT[αMePhe(2-F)]TSD[4Pal][αMeS]I[αMeL]LD[Orn]K([γGlu-γGlu-C18 diacid])AQ[Aib][Orn]FI[dE][αMeY]LQEGGPSSGEPPPEGSEE-NH2 [Example 585]”, the EC50 was found to be 3.93 nM on hGIPR [1]; 0.0801 nM on hGIPR [2]; 6.25 nM on hGcgR; 436 nM at human GcgR; 38.6 nM on hGLP-1R [3]; 0.601 nM on hGLP-1R [4].

For the substance “H-Y[Aib]QGT[αMePhe(2-F)]TSD[4Pal][αMeS]I[αMeL]LD[Orn]K([γGlu-γGlu-C18 diacid])AQ[Aib][Orn]FI[dE][αMeY]LQEGGPSSGEPPPSGTEE-NH2 [Example 572]”, the EC50 stood at 3.13 nM on hGIPR [1]; 0.0465 nM at hGIPR [2]; 3.48 nM on hGcgR; 330 nM on human GcgR; 30.4 nM on hGLP-1R [3]; 0.366 nM at hGLP-1R [4].

As to “H-Y[Aib]QGT[αMePhe(2-F)]TSD[4Pal][αMeS]I[αMeL]LD[Orn]K([γGlu-γGlu-C18 diacid])AQ[Aib][Orn]FI[dE][αMeY]LQEGGPSSGEPPPSGTEEE-NH2 [Example 573]”, the EC50 at hGIPR [1] was 3.15 nM; at hGIPR [2] it was 0.0342 nM; at hGcgR, 4.02 nM; at human GcgR it was 388 nM; at hGLP-1R [3], 31.6 nM; at hGLP-1R [4] it was 0.416 nM.
